The source of these data is US20140378551A1, “Composition for the Prophylactic Treatment of Neuropathic Pain” (Universite d'Auvergne, priority 2011, published 2014).

Structures can show the parent of a compound that is named as a salt.

Data set [1] relates to Tyr^1472 residue of the NR2B sub-unit of the NMDA receptor. Briefly: Chronic intrathecal treatment, phosphorylation of Tyr1472 residue in diabetes pain context. The class given is in vivo. Particulars: chronic treatment administered intrathecally. The source says: (§1) It is relatively better tolerated by patients.
Data set [2] has as its system mechanical hyperalgesia induced by diabetes. Nature of the data set: Chronic intrathecal treatment, mechanical hyperalgesia induced by diabetes. It is filed as in vivo. Particulars: chronic treatment administered intrathecally.
Description: as §1

The conditions of data set [3]: doses of 5 to 30 mg memantine hydrochloride (Sang et al., 2002); cited from earlier work.

As for `CC(C)(C)n1nc(-c2ccc(Cl)cc2)c2c(N)ncnc21` [PP2, 4-amino-5-(4-chlorophenyl)-7-(dimethylethyl) pyrazolo [3,4-d] pyrimidine], the “phosphorylation of the Tyr1472 residue” value in data set [1] was “reduces phosphorylation of the Tyr^1472 residue”. The “mechanical hyperalgesia induced by diabetes” value in data set [2] is listed as “abolishes the mechanical hyperalgesia induced by diabetes”.
As for `CC12CC3CC(C)(C1)CC(N)(C3)C2` [memantine hydrochloride], the tolerance by patients result in data set [3] was “well supported and tolerated by the patients”.
